Where two headings read alike, the source gives them in different places.
Columns and labels:
[1] = target: protein phosphatase 1 (PP1); settings: background art; cited from earlier work
[2] = target: protein phosphatase 2A (PP2A); settings: cited from earlier work; for IC50: background art
[3] = test system: protein phosphatase 1 (PP1); test: Inhibition of protein phosphatase 1, [32P]-phosphorylase substrate; type: biochemical, chicken; settings: for Inhibition of PP1 (%): initial screening at 100 mM (so in the source)
Procedure: (§1) All synthesised compounds were tested for their ability to inhibit protein phosphatases 1 and 2A. Initial investigations were carried out at 100 mM. Promising analogues were then assayed in triplicate for estimation of IC50 values.
(§2) Protein phosphatase 1 and 2A were partially purified from chicken skeletal muscle essentially as described by Cohen Protein phosphatase activity was measured at 37° C. in 50 mM Tris-HCl buffer (pH 7.4), 0.1 mM EDTA, 5 mM caffeine, 0.1% 2-mercaptoethanol and 1 mg/ml bovine serum albumin using […] [^32P]-phosphorylase as substrate. The total assay volume was […]. The assay conditions were restricted to 20% dephosphorylation to ensure linearity and inhibition of protein phosphatase activity was determined by including cantharidin or its analogues at the required concentrations in the reaction buffer. Reactions were terminated by the addition of 0.1 ml ice cold 20% trichloroacetic acid. Precipitated protein was pelleted by centrifugation and the radioactivity in the supernatant measured by liquid scintillation counting. Data is expressed as the percentage inhibition with respect to a control (absence of a competing compound) incubation.
(§3) Anhydrides and simple analogues were synthesised according to literature procedures (Eggelte et. al; 1973), and then subjected to a PP1 and PP2A bio-assay (see biochemistry) to determine their ability to inhibit these enzymes. The results of initial screening at 100 mMs are shown in Table 4, along with IC50 values in some instances.

[4] = target: protein phosphatase 2A (PP2A) (Gallus gallus, UniProt P48463); test: Inhibition of protein phosphatase 2A, [32P]-phosphorylase substrate; type: biochemical, chicken; parameters: inhibition: dose or concentration left out as unconfirmed
Chain of protein phosphatase 2A (PP2A) (Gallus gallus, UniProt P48463) (P48463 whole entry): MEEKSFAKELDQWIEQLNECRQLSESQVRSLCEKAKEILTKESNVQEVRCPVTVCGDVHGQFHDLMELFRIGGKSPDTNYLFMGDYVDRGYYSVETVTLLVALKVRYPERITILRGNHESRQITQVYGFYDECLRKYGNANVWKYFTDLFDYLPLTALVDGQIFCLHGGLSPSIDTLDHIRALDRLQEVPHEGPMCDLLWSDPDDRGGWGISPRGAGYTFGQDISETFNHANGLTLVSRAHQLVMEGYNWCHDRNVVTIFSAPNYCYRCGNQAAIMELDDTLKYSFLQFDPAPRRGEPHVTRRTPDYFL
Procedure: as §1, §2, §3

[5] = Stability under assay conditions; type: physicochemical; settings: PP assay conditions
SW480 cells = test: MTT cytotoxicity assay, 72 h; type: cell-based, human; settings: SW480, p53 mt; read-out: IC50 (mean ± SE) after 72 h continuous exposure
Procedure: (§4) Cells in a subconfluent phase are transferred to 96-well microtitre plates. L1210 cells are plated at a density of 1000 cells/well in 100 μl medium, while all other cell lines are plated at a density of 2000-25000 cells/well. The cells are left for 24 h prior to treatment to ensure exponential growth has been achieved, 24 h after plating (day 0), 100 μl of phosphatase inhibitor is added to each well, control wells received 100 μl of medium only. Drug exposure time is 72 h (day 3). The effect of phosphatase inhibition is tested in triplicate over a concentration range of […]−1×10^−8 M. Growth inhibitory effects are evaluated using the MTT assay and absorbance read at […]. The IC50 is the drug concentration at which cell growth is 50% inhibited based on the difference of optical density on day 0 and day 3 of drug exposure. Cytotoxicity is evaluated using a spectrophotometric assay which determines the percentage of cell growth following exposure of the cells to various concentrations of the phosphatase inhibitors for a period of 72 hours. The subsequent dose response curve is used to calculate IC50 values (the drug concentration at which cell growth is 50% inhibited).
(§5) Anti-cancer screening of the protein phosphatase inhibitors is assessed using the MTT assay. This assay determines cell viability by the ability of mitochondrial dehydrogenase to produce formazan crystals from 3-(4,5-dimethylthiazol-2-yl)-2,5-diphenyltetrazolium bromide. The viable cell number/well is directly proportional to the production of formazan, which following solubilization, can be measured spectrophotometrically (540 nm). This technique is also used by the National Cancer Institute to screen for new anticancer agents.
(§6) As described herein a number of cantharidin analogues have been synthesised and tested for their anticancer activity in nine cancer cell lines using the MTT assay after 72 h exposure. These new analogues are shown in FIG. 2 and have been designated MK-1 through to MK-9.

A2780 cells = test: MTT cytotoxicity assay, 72 h; type: cell-based, human; settings: A2780, p53 wt; read-out: IC50 (mean ± SE) after 72 h continuous exposure
Procedure: as §4, §5, §6

143B cells = test: MTT cytotoxicity assay, 72 h; type: cell-based, human; settings: p53 mt, read-out: IC50 (mean ± SE) after 72 h continuous exposure
Procedure: as §4, §5, §6

ADDP cells = test: MTT cytotoxicity assay, 72 h; type: cell-based, human; settings: p53 mt, read-out: IC50 (mean ± SE) after 72 h continuous exposure
Procedure: as §4, §5, §6

HT29 cells = test: MTT cytotoxicity assay, 72 h; type: cell-based, human; settings: HT29, p53 mt; read-out: IC50 (mean ± SE) after 72 h continuous exposure
Procedure: as §4, §5, §6

HCT116 cells = test: MTT cytotoxicity assay, 72 h; type: cell-based, human; settings: HCT116, p53 wt; read-out: IC50 (mean ± SE) after 72 h continuous exposure
Procedure: as §4, §5, §6

WiDr cells = test: MTT cytotoxicity assay, 72 h; type: cell-based, human; settings: p53 mt, read-out: IC50 (mean ± SE) after 72 h continuous exposure
Procedure: as §4, §5, §6

HL60 cells = test: MTT cytotoxicity assay, 72 h; type: cell-based, human; settings: HL60, p53 nul; read-out: IC50 (mean ± SE) after 72 h continuous exposure
Procedure: as §4, §5, §6

L1210 cells = test: MTT cytotoxicity assay, 72 h; type: cell-based, murine; settings: L1210, p53 wt; read-out: IC50 (mean ± SE) after 72 h continuous exposure
Procedure: as §4, §5, §6

nine cancer cell lines = test: MTT cytotoxicity assay, 72 h, ranges over cell line panel; type: cell-based
Procedure: as §4, §5, §6

[6] = nine cell lines, read-out: IC50 range across all cell lines tested

C=C1[C@@H](O)[C@@H]2O[C@]3(CC[C@H](/C=C/[C@@H](C)[C@@H]4CC(C)=C[C@@]5(O[C@H](C[C@@](C)(O)C(=O)O)CC[C@H]5O)O4)O3)CC[C@H]2O[C@@H]1[C@@H](O)C[C@H](C)[C@H]1O[C@@]2(CCCCO2)CC[C@H]1C [Okadaic acid]
IC50 [1]: 0.06 µM
IC50 [2]: 0.001 µM

O=C1OC(O)C2C3CCC(O3)C12 (stereo not shown) [Compound 6]
Inhibition of PP1 (%) [3]: 9%
inhibition [4]: 11%

O=C1OC(=O)[C@H]2[C@@H]1[C@H]1CC[C@H]2O1 [Compound 2, norcantharidin]
Stability under assay conditions [5]: rapid conversion to the dicarboxylic acid
Previously reported PP2A selectivity ([2]; PP2A over PP1): ~10 fold
Inhibition of PP2A (%) ([4]; initial screening at 100 mM (so in the source)): 95%

O=C(O)C1C2C=CC(O2)C1C(=O)Oc1ccccc1 (stereo not shown) [MK-3]
IC50 (SW480 cells): 444 ± 27 µM
IC50 (A2780 cells): 317 ± 17 µM
IC50 (143B cells): 665 ± 225 µM
IC50 (ADDP cells): > 1000 µM
IC50 (HT29 cells): 530 ± 112 µM
IC50 (HCT116 cells): > 1000 µM
IC50 (WiDr cells): 620 ± 31 µM
IC50 (HL60 cells): 247 ± 55 µM
IC50 (L1210 cells): 647 ± 132 µM
IC50 (nine cancer cell lines; [6]): ≥ 247 µM

O=C1SC(=O)[C@H]2[C@@H]1[C@@H]1CC[C@H]2O1 [endothal thioanhydride]
Potency relative to cantharidin [2]: three fold more potent than cantharidin

O=C1OC(=O)C2C3CCC(O3)C12 (stereo not shown) [Compound 1]
IC50 [3]: 2.4 µM
Selectivity PP2A/PP1 [3]: 0.875
Inhibition of PP1 (%) [3]: 90%
inhibition [4]: 97%

calyculin
IC50 [1]: 0.0005 to 0.001 µM
IC50 [2]: 0.002 µM

COC(=O)C1C2C=CC(S2)C1C(=O)OC (stereo not shown)
Inhibition of PP1 (%) [3]: 3%

O=C1NC(=O)C2C3CCC(S3)C12 (stereo not shown)
Inhibition of PP1 (%) [3]: 15%

COC(=O)C1C2C=CC(O2)C1C(=O)OC (stereo not shown) [Compound 3]
IC50 [3]: 50 µM
Selectivity PP2A/PP1 [3]: >200
Inhibition of PP1 (%) [3]: 46%
inhibition [4]: 6%

CO[C@@H]1OC(=O)C2C3CCC(O3)C21 (stereo partly shown) [Compound 5]
Inhibition of PP1 (%) [3]: 15%
inhibition [4]: 8%

COC1OC(=O)C2C3CCC(O3)C12 (stereo not shown) [MK-5]
IC50 (SW480 cells): 247 ± 14 µM
IC50 (A2780 cells): 567 ± 109 µM
IC50 (143B cells): > 1000 µM
IC50 (ADDP cells): 260 ± 40 µM
IC50 (HT29 cells): 28 ± 1 µM
IC50 (HCT116 cells): 143 ± 23 µM
IC50 (WiDr cells): 31 ± 10 µM
IC50 (HL60 cells): 323 ± 13 µM
IC50 (L1210 cells): > 1000 µM
IC50 (nine cancer cell lines; colon lines, read-out: IC50 range in human colon cancer cell lines): 28 to 247 µM
IC50 (nine cancer cell lines; leukaemia lines, read-out: IC50 range in leukaemia cells): ≥ 323 µM
IC50 (nine cancer cell lines; ovarian lines, read-out: IC50 range in ovarian cells): 260 to 567 µM

O=C1OCC2C3CCC(O3)C12 (stereo not shown) [Compound 7]
inhibition [4]: 21%

O=C1NC(=O)C2C3C=CC(S3)C12 (stereo not shown) [MK-1]
IC50 (SW480 cells): > 1000 µM
IC50 (A2780 cells): > 1000 µM
IC50 (143B cells): > 1000 µM
IC50 (ADDP cells): > 1000 µM
IC50 (HT29 cells): > 1000 µM
IC50 (HCT116 cells): > 1000 µM
IC50 (WiDr cells): > 1000 µM
IC50 (HL60 cells): > 1000 µM
IC50 (L1210 cells): > 1000 µM
IC50 (nine cancer cell lines; [6]): > 1000 µM

CO[C@H]1OC(=O)C2C3CCC(O3)C21 (stereo partly shown) [Compound 4]
Inhibition of PP1 (%) [3]: 13%
inhibition [4]: 11%

O=C1OC(=O)C2C3C=CC(O3)C12 (stereo not shown) [Compound 2, norcantharidin, reference compound]
inhibition [4]: 95%
